How the values were obtained:
[1] = The drug is tested on WLS-038 corresponding to human gut metagenome with ENA study accession number: PRJEB37062 and ENA sample accession number: ERS12561745 for biotransformation under anaerobic condition. The drug concentrations were measured over 9 timepoints collected between 0 and 24 hours of incubation by liquid-chromatography-coupled mass spectrometry (LC–MS); conditions: 2 µM
[2] = The drug is tested on Z-026 corresponding to metagenome with ENA study accession number: PRJEB37062 and ENA sample accession number: ERS12561825 for biotransformation under anaerobic condition. The drug concentrations were measured over 9 timepoints collected between 0 and 24 hours of incubation by liquid-chromatography-coupled mass spectrometry (LC–MS); conditions: 2 µM
[3] = human gut metagenome, 24 h, 2 µM
[4] = human gut metagenome, 24 h, 2 µM; remark: listed apart in the source
[5] = The drug is tested on WLS-090 corresponding to human gut metagenome with ENA study accession number: PRJEB37062 and ENA sample accession number: ERS12561753 for biotransformation under anaerobic condition. The drug concentrations were measured over 9 timepoints collected between 0 and 24 hours of incubation by liquid-chromatography-coupled mass spectrometry (LC–MS); conditions: 2 µM
[6] = The drug is tested on Z-021 corresponding to metagenome with ENA study accession number: PRJEB37062 and ENA sample accession number: ERS12561820 for biotransformation under anaerobic condition. The drug concentrations were measured over 9 timepoints collected between 0 and 24 hours of incubation by liquid-chromatography-coupled mass spectrometry (LC–MS); conditions: 2 µM
[7] = human gut metagenome, 24 h, 2 µM; remark: listed apart in the source
[8] = The drug is tested on Z-010 corresponding to metagenome with ENA study accession number: PRJEB37062 and ENA sample accession number: ERS12561810 for biotransformation under anaerobic condition. The drug concentrations were measured over 9 timepoints collected between 0 and 24 hours of incubation by liquid-chromatography-coupled mass spectrometry (LC–MS); conditions: 2 µM
[9] = The drug is tested on WLS-310 corresponding to human gut metagenome with ENA study accession number: PRJEB37062 and ENA sample accession number: ERS12561785 for biotransformation under anaerobic condition. The drug concentrations were measured over 9 timepoints collected between 0 and 24 hours of incubation by liquid-chromatography-coupled mass spectrometry (LC–MS); conditions: 2 µM
[10] = human gut metagenome, 24 h, 2 µM; remark: listed apart in the source
[11] = human gut metagenome, 24 h, 2 µM; remark: listed apart in the source
[12] = The drug is tested on Z-023 corresponding to metagenome with ENA study accession number: PRJEB37062 and ENA sample accession number: ERS12561822 for biotransformation under anaerobic condition. The drug concentrations were measured over 9 timepoints collected between 0 and 24 hours of incubation by liquid-chromatography-coupled mass spectrometry (LC–MS); conditions: 2 µM
[13] = human gut metagenome, 24 h, 2 µM; remark: listed apart in the source
[14] = The drug is tested on Z-009 corresponding to pig gut metagenome with ENA study accession number: PRJEB37062 and ENA sample accession number: ERS12561809 for biotransformation under anaerobic condition. The drug concentrations were measured over 9 timepoints collected between 0 and 24 hours of incubation by liquid-chromatography-coupled mass spectrometry (LC–MS); conditions: 2 µM
[15] = The drug is tested on Z-018 corresponding to pig gut metagenome with ENA study accession number: PRJEB37062 and ENA sample accession number: ERS12561817 for biotransformation under anaerobic condition. The drug concentrations were measured over 9 timepoints collected between 0 and 24 hours of incubation by liquid-chromatography-coupled mass spectrometry (LC–MS); conditions: 2 µM
[16] = The drug is tested on WLS-220 corresponding to human gut metagenome with ENA study accession number: PRJEB37062 and ENA sample accession number: ERS12561769 for biotransformation under anaerobic condition. The drug concentrations were measured over 9 timepoints collected between 0 and 24 hours of incubation by liquid-chromatography-coupled mass spectrometry (LC–MS); conditions: 2 µM
[17] = The drug is tested on WLS-086 corresponding to human gut metagenome with ENA study accession number: PRJEB37062 and ENA sample accession number: ERS12561752 for biotransformation under anaerobic condition. The drug concentrations were measured over 9 timepoints collected between 0 and 24 hours of incubation by liquid-chromatography-coupled mass spectrometry (LC–MS); conditions: 2 µM
[18] = The drug is tested on Z-028 corresponding to mouse gut metagenome with ENA study accession number: PRJEB37062 and ENA sample accession number: ERS12561827 for biotransformation under anaerobic condition. The drug concentrations were measured over 9 timepoints collected between 0 and 24 hours of incubation by liquid-chromatography-coupled mass spectrometry (LC–MS); conditions: 2 µM
[19] = The drug is tested on Z-024 corresponding to pig gut metagenome with ENA study accession number: PRJEB37062 and ENA sample accession number: ERS12561823 for biotransformation under anaerobic condition. The drug concentrations were measured over 9 timepoints collected between 0 and 24 hours of incubation by liquid-chromatography-coupled mass spectrometry (LC–MS); conditions: 2 µM
[20] = human gut metagenome, 24 h, 2 µM; remark: listed apart in the source
Note: call rule not given here.

CC(C)(C)N.CCC[C@H](N[C@@H](C)C(=O)N1[C@H](C(=O)O)C[C@@H]2CCCC[C@@H]21)C(=O)OCC [PERINDOPRIL ERBUMINE]
Bacterial Biotransformation [1]: Compound NOT metabolized
Bacterial Biotransformation [2]: Compound NOT metabolized
Bacterial Biotransformation [3]: Compound metabolized
Bacterial Biotransformation [4]: Compound metabolized
Bacterial Biotransformation [5]: Compound metabolized
Bacterial Biotransformation [6]: Compound NOT metabolized
Bacterial Biotransformation [7]: Compound metabolized
Bacterial Biotransformation [8]: Compound metabolized
Bacterial Biotransformation [9]: Compound metabolized
Bacterial Biotransformation [10]: Compound metabolized
Bacterial Biotransformation [11]: Compound metabolized
Bacterial Biotransformation [12]: Compound metabolized
Bacterial Biotransformation [13]: Compound NOT metabolized
Bacterial Biotransformation [14]: Compound metabolized
Bacterial Biotransformation [15]: Compound metabolized
Bacterial Biotransformation [16]: Compound metabolized
Bacterial Biotransformation [17]: Compound metabolized
Bacterial Biotransformation [18]: Compound NOT metabolized
Bacterial Biotransformation [19]: Compound metabolized
Bacterial Biotransformation [20]: Compound metabolized

CCN(C(C)=O)c1cccc(-c2ccnc3c(C#N)cnn23)c1 [ZALEPLON]
Bacterial Biotransformation [1]: Compound metabolized
Bacterial Biotransformation [2]: Compound NOT metabolized
Bacterial Biotransformation [3]: Compound metabolized
Bacterial Biotransformation [4]: Compound metabolized
Bacterial Biotransformation [5]: Compound metabolized
Bacterial Biotransformation [6]: Compound NOT metabolized
Bacterial Biotransformation [7]: Compound metabolized
Bacterial Biotransformation [8]: Compound metabolized
Bacterial Biotransformation [9]: Compound metabolized
Bacterial Biotransformation [10]: Compound metabolized
Bacterial Biotransformation [11]: Compound metabolized
Bacterial Biotransformation [12]: Compound metabolized
Bacterial Biotransformation [13]: Compound NOT metabolized
Bacterial Biotransformation [14]: Compound metabolized
Bacterial Biotransformation [15]: Compound metabolized
Bacterial Biotransformation [16]: Compound metabolized
Bacterial Biotransformation [17]: Compound metabolized
Bacterial Biotransformation [18]: Compound NOT metabolized
Bacterial Biotransformation [19]: Compound NOT metabolized
Bacterial Biotransformation [20]: Compound metabolized

CC(C)[C@H]1CC[C@H](C(=O)N[C@H](Cc2ccccc2)C(=O)O)CC1 [NATEGLINIDE]
Bacterial Biotransformation [1]: Compound metabolized
Bacterial Biotransformation [2]: Compound NOT metabolized
Bacterial Biotransformation [3]: Compound metabolized
Bacterial Biotransformation [4]: Compound metabolized
Bacterial Biotransformation [5]: Compound metabolized
Bacterial Biotransformation [6]: Compound metabolized
Bacterial Biotransformation [7]: Compound metabolized
Bacterial Biotransformation [8]: Compound metabolized
Bacterial Biotransformation [9]: Compound metabolized
Bacterial Biotransformation [10]: Compound metabolized
Bacterial Biotransformation [11]: Compound metabolized
Bacterial Biotransformation [12]: Compound metabolized
Bacterial Biotransformation [13]: Compound metabolized
Bacterial Biotransformation [14]: Compound metabolized
Bacterial Biotransformation [15]: Compound metabolized
Bacterial Biotransformation [16]: Compound metabolized
Bacterial Biotransformation [17]: Compound metabolized
Bacterial Biotransformation [18]: Compound NOT metabolized
Bacterial Biotransformation [19]: Compound metabolized
Bacterial Biotransformation [20]: Compound metabolized

O=C(CCCN1CCC2(CC1)C(=O)NCN2c1ccccc1)c1ccc(F)cc1 [SPIPERONE]
Bacterial Biotransformation [1]: Compound NOT metabolized
Bacterial Biotransformation [2]: Compound NOT metabolized
Bacterial Biotransformation [3]: Compound metabolized
Bacterial Biotransformation [4]: Compound metabolized
Bacterial Biotransformation [5]: Compound NOT metabolized
Bacterial Biotransformation [6]: Compound NOT metabolized
Bacterial Biotransformation [7]: Compound NOT metabolized
Bacterial Biotransformation [8]: Compound metabolized
Bacterial Biotransformation [9]: Compound metabolized
Bacterial Biotransformation [10]: Compound NOT metabolized
Bacterial Biotransformation [11]: Compound NOT metabolized
Bacterial Biotransformation [12]: Compound metabolized
Bacterial Biotransformation [13]: Compound NOT metabolized
Bacterial Biotransformation [14]: Compound metabolized
Bacterial Biotransformation [15]: Compound NOT metabolized
Bacterial Biotransformation [16]: Compound metabolized
Bacterial Biotransformation [17]: Compound metabolized
Bacterial Biotransformation [18]: Compound NOT metabolized
Bacterial Biotransformation [19]: Compound NOT metabolized
Bacterial Biotransformation [20]: Compound metabolized

CN(C)CCOC(C)(c1ccccc1)c1ccccn1.O=C(O)CCC(=O)O (stereo not given) [DOXYLAMINE SUCCINATE]
Bacterial Biotransformation [1]: Compound NOT metabolized
Bacterial Biotransformation [2]: Compound NOT metabolized
Bacterial Biotransformation [3]: Compound NOT metabolized
Bacterial Biotransformation [4]: Compound NOT metabolized
Bacterial Biotransformation [5]: Compound NOT metabolized
Bacterial Biotransformation [6]: Compound NOT metabolized
Bacterial Biotransformation [7]: Compound NOT metabolized
Bacterial Biotransformation [8]: Compound NOT metabolized
Bacterial Biotransformation [9]: Compound NOT metabolized
Bacterial Biotransformation [10]: Compound NOT metabolized
Bacterial Biotransformation [11]: Compound NOT metabolized
Bacterial Biotransformation [12]: Compound NOT metabolized
Bacterial Biotransformation [13]: Compound NOT metabolized
Bacterial Biotransformation [14]: Compound NOT metabolized
Bacterial Biotransformation [15]: Compound NOT metabolized
Bacterial Biotransformation [16]: Compound NOT metabolized
Bacterial Biotransformation [17]: Compound NOT metabolized
Bacterial Biotransformation [18]: Compound NOT metabolized
Bacterial Biotransformation [19]: Compound NOT metabolized
Bacterial Biotransformation [20]: Compound NOT metabolized

— ChEMBL document CHEMBL5724914, “Linking interpersonal differences in gut microbiota composition and drug biotransformation activity” (2024)
